The text below walks through data of US5874438A, “2,2'-bridged bis-2,4-diaminoquinazolines” (Bayer Aktiengesellschaft, priority 1996, dated 1999).

The target in assay [1] is apamin-sensitive potassium channels. Kind of assay: Binding of ^125 I-apamin to bovine cerebral membrane. The note with it: ^125 I-apamin 30 pM, calf hippocampus membranes, 60 min on ice. The procedure:
(§1) The compounds according to the invention are ligands for apamin-sensitive potassium channels. This can be shown by studying the affinity for apamine binding sites, e.g. in bovine cerebral membranes.
1) Binding of ^125 I-apamin to bovine cerebral membrane
Calf brains were obtained from the local abattoir. The hippocampus was prepared on ice and a membrane suspension was made up by homogenization twice in buffer (100 mM Tris-HCl, KCl 5 mM, pH 7.4) and centrifugation at 43,000×g. In a total volume of 500 μl, the incubation mixture contained 200 μg of membrane protein, 30 pM ^125 I-apamine and test substances in the concentration range 1×10^-9 to […]. The non-specific binding of ^125 I-apamin was determined in the presence of 1×10^-7 M unlabelled apamin.
After preincubation for 30 min at room temperature (test substances and membrane homogenate), the samples were placed on ice for 10 min before the radioligand was added. The main incubation time was 60 min on ice. When the reaction time had elapsed, an excess of ice-cooled incubation buffer was added to each sample and the mixture was filtered with suction through cellulose acetate/nitrate membrane filters. The amount of bound ^125 I-apamin was measured with a gamma counter.

Assay [2] concerns potassium channel (PC12 cells). Kind of assay: Non-radioactive Rb^+ efflux assay for the identification of potassium channel modulators. The class given is cell-based. The settings on record: 50 mM KCl stimulation, 10 min. As for the experimental part:
as §1
2) Non-radioactive Rb^+ efflux assay for the identification of potassium channel modulators
The potassium in PC12 cells is exchanged with rubidium, which is not present in the cells. This exchange is performed by incubating the cells over a period of 4 h in a physiological buffer containing 5.4 mM RbCl without KCl. This rubidium subsequently serves as a tracer for potassium.
The cells laden with Rb^+ in this way are washed three times and then stimulated by depolarization with 50 mM KCl to open potassium channels (10 min), causing Rb^+ to flow out of the cells into the supernatant according to the concentration gradient. The rubidium contents in the cell supernatant and in the residual cells after they have been lysed with 1% Triton X-100 are then determined by means of atomic absorption spectroscopy. The relative proportion of rubidium in the cell supernatant (=Rb^+ efflux) is used as a measure of the potassium channel activity.
The effect of substances on the channel activity is measured by co-incubating the test substance over the ten-minute stimulation period and determining its effect on the Rb^+ efflux in the manner described above.

Usually Ki stands for a dissociation constant, usually derived from enzyme kinetics or from competition with a known ligand. Lower therefore signals higher affinity. On to `CCN(CC)c1nc(N2CCCN(c3nc(N(CC)CC)c4cc(Cl)ccc4n3)CC2)nc2ccc(Cl)cc12` [Example 4, 1,4-Bis-(6-chloro-4-diethylamino-2-quinazolyl)-1,4-diazacycloheptane], for which the Ki in assay [1] was 140 nM.
Take `CCN(CC)c1nc(N2CCCN(c3nc(N(CC)CC)c4ccccc4n3)CC2)nc2ccccc12` [Example 3, 1,4-Bis-(4-diethylamino-2-quinazolyl)-1,4-diazacycloheptane]: in assay [2], the “% inhibition of the Rb efflux at a test concentration of 10 μM” value worked out at 63%.
For `CCN(CC)c1nc(N2CCCN(c3nc(N(CC)CC)c4ccccc4n3)CCC2)nc2ccccc12` [Example 1, 1,5-Bis-(4-diethylaminoquinazolin-2-yl)-[1,5]-diazoxane], in assay [1], the affinity, expressed as Ki, was 340 nM.
`CCN(CC)c1nc(NCC23C=CC(CC2)C2CN(c4nc(N(CC)CC)c5ccccc5n4)CC23)nc2ccccc12.Cl.Cl` (stereo not shown) [Example 2, N^2-[4-(4-Diethylamino-quinazolin-2-yl)-4-aza-tricyclo[5.2.2.0^2,6]undec-8-en-1-yl-methyl]-N^4,N^4-diethyl-quinazoline-2,4-diamine dihydrochloride]: the “% inhibition of the Rb efflux at a test concentration of 10 μM” value in assay [2] is recorded as 72%.
